Biological target: T1, human glycolate oxidase (hGO) (Homo sapiens, UniProt Q9UJM8)
T1 construct: His-tag (6 histidines, pET-15b) (N); made in house; host or cells: E. coli BL21 (DE3)
T1 sequence (Q9UJM8 1-370): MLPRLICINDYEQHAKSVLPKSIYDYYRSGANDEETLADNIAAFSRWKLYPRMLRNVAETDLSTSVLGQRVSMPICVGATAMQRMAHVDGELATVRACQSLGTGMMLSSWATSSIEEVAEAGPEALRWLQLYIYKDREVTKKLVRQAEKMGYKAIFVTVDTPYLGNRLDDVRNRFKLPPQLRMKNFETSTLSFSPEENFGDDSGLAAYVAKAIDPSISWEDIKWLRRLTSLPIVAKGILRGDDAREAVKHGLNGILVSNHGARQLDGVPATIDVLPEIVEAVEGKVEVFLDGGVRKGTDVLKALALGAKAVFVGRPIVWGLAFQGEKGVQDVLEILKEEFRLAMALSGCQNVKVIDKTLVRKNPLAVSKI
Assay: In vitro inhibition of human glycolate oxidase (enzymatic assay, HRP-coupled Trinder reaction);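 on % Inhibition: values are IC50 potency bins despite the % Inhibition label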
Format: biochemical
Settings: not given
Text: The catalytic reactions used for assaying glycolate oxidase activity in the presence of compounds according to the present disclosure are outlined in FIG. 2. Glycolate oxidase (GO)-catalyzed conversion of glycolate to glyoxylate (top reaction), with the concomitant reduction of the cofactor flavin mononucleotide (FMN), uses molecular oxygen (O2) for recovering its oxidative state, releasing hydrogen peroxide (H2O2). The Trinder reaction (bottom reaction), in which horseradish peroxidase (HRP) uses hydrogen peroxide, 4-aminoantipyrine and a phenol derivative (sulphonated DCIP) to generate a quinoneimine dye that is spectrophotometrically measured.
Human glycolate oxidase (hGO) expression. BL21 (DE3) E. coli transformed with recombinant pET-15b expression vector with the N-terminal His-tag human Hao1 cDNA was grown in LB medium in the presence of 0.1 mg/ml ampicillin. For purification of recombinant human glycolate oxidase (hGO) expressed in BL21 E. coli, bacteria pellets were thawed and re-suspended in 2 ml lysis buffer (50 mM NaH2PO4, 300 mM NaCl, 10 mM imidazole, 50 μM FMN, pH 7.5), and then treated for 30 minutes with 1 mM PMSF for protease inhibition, 0.1% Triton X-100 and 0.2 mg/ml lysozyme to break cellular membranes. After sonication, cells were centrifuged and the supernatant containing the total cellular extract (pre-column fraction) was loaded into a Ni-NTA agarose column and incubated for 30 minutes at 4° C. to allow binding of the 6 histidine tail of recombinant GO protein to the nickel ions. The column was washed with two bed volumes of lysis buffer with 20 mM imidazole to eliminate unbound proteins (wash fraction). GO was eluted using the same buffer with 300 mM imidazole. Fraction containing purified GO was dialyzed against 300 ml of dialysis buffer (50 mM NaH2PO4, 300 mM NaCl, pH 7.5) at 4° C. in agitation overnight, and then kept at 4° C. in darkness. Protein were quantified by the bicinchoninic acid (BCA) assay.
Enzymatic assays. Enzymatic activity of hGO was determined in the presence of glycolate as substrate (40 mM glycolic acid) and phosphate buffer (50 mM KPO4, 0.1 mM EDTA, pH 7). The production of glyoxylate was indirectly measured by the quantification of hydrogen peroxide formed during the first oxidation reaction. […] Enzymatic activity was calculated at 1 minute after initiation of the Trinder reaction.

IC50	Compound
100 to 200 nM	O=C(O)c1nn[nH]c1Oc1ccc(Cl)c(F)c1 [Example 8, 5-(4-chloro-3-fluorophenoxy)-1H-1,2,3-triazole-4-carboxylic Acid]
> 200 nM	O=C(O)c1nn[nH]c1Oc1ccccc1 [Example 45, 5-phenoxy-1H-1,2,3-triazole-4-carboxylic Acid]
100 to 200 nM	O=C(O)c1nn[nH]c1Oc1ccc(C2CCCC2)cc1 [Example 69, 5-(4-cyclopentylphenoxy)-1H-1,2,3-triazole-4-carboxylic Acid]
< 100 nM	O=C(O)c1nn[nH]c1Oc1ccc(Cl)cc1 [Example 36, 5-(4-chlorophenoxy)-1H-1,2,3-triazole-4-carboxylic Acid]
< 100 nM	Cc1cc(Oc2[nH]nnc2C(=O)O)ccc1Br [Example 71, 5-(4-bromo-3-methylphenoxy)-1H-1,2,3-triazole-4-carboxylic Acid]

Same assay, conditions: recombinant hGO, 40 mM glycolic acid, pH 7, read at 515 nm, 1 minute after initiation of Trinder reaction; read-out: % Inhibition

IC50	Compound
> 200 nM	Cc1ccc(Oc2[nH]nnc2C(=O)O)cn1 [Example 54, 5-((6-methylpyridin-3-yl)oxy)-1H-1,2,3-triazole-4-carboxylic Acid]
100 to 200 nM	O=C(O)c1nn[nH]c1Sc1ccc(F)cc1 [Example 47, 5-((4-fluorophenyl)thio)-1H-1,2,3-triazole-4-carboxylic Acid]
< 100 nM	O=C(O)c1nn[nH]c1Oc1ccc(-c2cnccn2)cc1 [Example 37, 5-(4-(pyrazin-2-yl)phenoxy)-1H-1,2,3-triazole-4-carboxylic Acid]
< 100 nM	Cc1c(-c2ccc(Oc3[nH]nnc3C(=O)O)cc2)ccnc1F [Example 75, 5-(4-(2-fluoro-3-methylpyridin-4-yl)phenoxy)-1H-1,2,3-triazole-4-carboxylic Acid]
< 100 nM	O=C(O)c1nn[nH]c1Oc1ccc(N2CCNCC2)cc1 [Example 2, 5-(4-(piperazin-1-yl)phenoxy)-1H-1,2,3-triazole-4-carboxylic Acid]
< 100 nM	COc1ccc(-c2ccc(Oc3[nH]nnc3C(=O)O)cc2OC)c(OC)n1 [Example 91, 5-(4-(2,6-dimethoxypyridin-3-yl)-3-methoxyphenoxy)-1H-1,2,3-triazole-4-carboxylic Acid]
100 to 200 nM	CC(C)c1ccc(-c2ccc(Oc3[nH]nnc3C(=O)O)c(F)c2)cc1 [Example 107, 5-((3-fluoro-4′-isopropyl-[1,1′-biphenyl]-4-yl)oxy)-1H-1,2,3-triazole-4-carboxylic Acid]
< 100 nM	COc1ccc(-c2ccc(Oc3[nH]nnc3C(=O)O)cc2)cn1 [Example 100, 5-(4-(6-methoxypyridin-3-yl)phenoxy)-1H-1,2,3-triazole-4-carboxylic Acid]
100 to 200 nM	O=C(O)c1nn[nH]c1Oc1ccc(-c2cccnc2)cc1 [Example 14, 5-(4-(pyridin-3-yl)phenoxy)-1H-1,2,3-triazole-4-carboxylic Acid]
100 to 200 nM	N#Cc1ccc(-c2cccc(Oc3[nH]nnc3C(=O)O)c2)cc1 [Example 64, 5-((4′-cyano-[1,1′-biphenyl]-3-yl)oxy)-1H-1,2,3-triazole-4-carboxylic Acid]
< 100 nM	Cc1ccc(-c2ccc(Oc3[nH]nnc3C(=O)O)cc2C)c(F)n1 [Example 78, 5-(4-(2-fluoro-6-methylpyridin-3-yl)-3-methylphenoxy)-1H-1,2,3-triazole-4-carboxylic Acid]
> 200 nM	CC(C)Cc1ccc(-c2ccc(Oc3[nH]nnc3C(=O)O)cc2)cc1 [Example 108, 5-((4′-isobutyl-[1,1′-biphenyl]-4-yl)oxy)-1H-1,2,3-triazole-4-carboxylic Acid]
< 100 nM	O=C(O)c1nn[nH]c1Oc1ccc(-c2ccnc(F)c2)cc1 [Example 92, 5-(4-(2-fluoropyridin-4-yl)phenoxy)-1H-1,2,3-triazole-4-carboxylic Acid]
< 100 nM	Cc1ccc(-c2ccc(Oc3[nH]nnc3C(=O)O)cc2)c(F)n1 [Example 79, 5-(4-(2-fluoro-6-methylpyridin-3-yl)phenoxy)-1H-1,2,3-triazole-4-carboxylic Acid]
100 to 200 nM	O=C(O)c1nn[nH]c1Oc1ccc(C2CCSCC2)cc1 [Example 97, 5-(4-(tetrahydro-2H-thiopyran-4-yl)phenoxy)-1H-1,2,3-triazole-4-carboxylic Acid]
100 to 200 nM	O=C1CCC(c2ccc(Oc3[nH]nnc3C(=O)O)cc2)CC1 [Example 77, 5-(4-(4-oxocyclohexyl)phenoxy)-1H-1,2,3-triazole-4-carboxylic Acid]

IC50	Compound
> 200 nM	CC(=O)N1CCN(c2ccc(Oc3[nH]nnc3C(=O)O)cc2)CC1 [Example 3, 5-(4-(4-acetylpiperazin-1-yl)phenoxy)-1H-1,2,3-triazole-4-carboxylic Acid]
< 100 nM	Cc1ncc(-c2cccc(Oc3[nH]nnc3C(=O)O)c2)cn1 [Example 59, 5-(3-(2-methylpyrimidin-5-yl)phenoxy)-1H-1,2,3-triazole-4-carboxylic Acid]
100 to 200 nM	O=C(O)c1nn[nH]c1Sc1ccc(-c2cccnc2F)cc1 [Example 62, 5-((4-(2-fluoropyridin-3-yl)phenyl)thio)-1H-1,2,3-triazole-4-carboxylic Acid]
100 to 200 nM	O=C(O)c1nn[nH]c1Oc1cccc(-c2ccc(C(F)(F)F)cc2)c1 [Example 114, 5-((4′-(trifluoromethyl)-[1,1′-biphenyl]-3-yl)oxy)-1H-1,2,3-triazole-4-carboxylic Acid]
< 100 nM	COc1cc(Oc2[nH]nnc2C(=O)O)ccc1Br [Example 89, 5-(4-bromo-3-methoxyphenoxy)-1H-1,2,3-triazole-4-carboxylic Acid]
> 200 nM	O=C(O)c1nn[nH]c1Oc1ccc(C2CC2(F)F)cc1 (stereo not shown) [Example 130, 5-(4-(2,2-difluorocyclopropyl)phenoxy)-1H-1,2,3-triazole-4-carboxylic Acid]
< 100 nM	CC(C)c1ccc(-c2ccc(Oc3[nH]nnc3C(=O)O)cc2)cc1 [Example 32, 5-((4′-isopropyl-[1,1′-biphenyl]-4-yl)oxy)-1H-1,2,3-triazole-4-carboxylic Acid]
< 100 nM	COc1ccc(-c2ccc(Oc3[nH]nnc3C(=O)O)cc2OC)cn1 [Example 90, 5-(3-methoxy-4-(6-methoxypyridin-3-yl)phenoxy)-1H-1,2,3-triazole-4-carboxylic Acid]
< 100 nM	CS(=O)(=O)Nc1ccc(-c2ccc(Oc3[nH]nnc3C(=O)O)cc2)cc1 [Example 102, 5-((4′-(methylsulfonamido)-[1,1′-biphenyl]-4-yl)oxy)-1H-1,2,3-triazole-4-carboxylic Acid]
100 to 200 nM	O=C(O)c1nn[nH]c1Oc1ccc(-c2ccc(C3CC3(F)F)cc2)cc1 (stereo not shown) [Example 123, 5-((4′-(2,2-difluorocyclopropyl)-[1,1′-biphenyl]-4-yl)oxy)-1H-1,2,3-triazole-4-carboxylic Acid]
100 to 200 nM	O=C(O)c1nn[nH]c1Oc1ccc(-c2cccc(OC(F)F)c2)nc1 [Example 44, 5-((6-(3-(difluoromethoxy)phenyl)pyridin-3-yl)oxy)-1H-1,2,3-triazole-4-carboxylic Acid]
< 100 nM	Cc1nc(F)ccc1-c1ccc(Oc2[nH]nnc2C(=O)O)cc1 [Example 73, 5-(4-(6-fluoro-2-methylpyridin-3-yl)phenoxy)-1H-1,2,3-triazole-4-carboxylic Acid]
< 100 nM	Cc1ncc(-c2ccc(Oc3[nH]nnc3C(=O)O)cc2)cn1 [Example 13, 5-(4-(2-methylpyrimidin-5-yl)phenoxy)-1H-1,2,3-triazole-4-carboxylic Acid]
< 100 nM	O=C(O)c1nn[nH]c1Oc1ccc(-c2ccn[nH]2)cc1 [Example 12, 5-(4-(1H-pyrazol-5-yl)phenoxy)-1H-1,2,3-triazole-4-carboxylic Acid]
100 to 200 nM	CC(C)(C)c1ccc(-c2ccc(Oc3[nH]nnc3C(=O)O)c(F)c2)cc1 [Example 106, 5-((4′-(tert-butyl)-3-fluoro-[1,1′-biphenyl]-4-yl)oxy)-1H-1,2,3-triazole-4-carboxylic Acid]
100 to 200 nM	O=C(O)c1nn[nH]c1Oc1ccc(-c2ncco2)cc1 [Example 26, 5-(4-(oxazol-2-yl)phenoxy)-1H-1,2,3-triazole-4-carboxylic Acid]

From patent publication US11401246B2, “Triazole glycolate oxidase inhibitors” (CANTERO THERAPEUTICS, INC., priority 2018, dated 2022)
